These molecules were tested on sodium monoiodoacetate-induced model rats (assay: Analgesic effect on sodium monoiodoacetate-induced model rats). Details: MIA-induced model rats; day 24; 3 mg/kg subcutaneously 1 hour before the measurement; positive control drug.
Format: in vivo, rat

SMILES	Percent improvement (%)
CN1CC[C@]23c4c5ccc(O)c4O[C@H]2[C@@H](O)C=C[C@H]3[C@H]1C5 [Morphine, morphine, reference compound]	54

Same assay, conditions: MIA-induced model rats; day 24; 10 mg/kg subcutaneously 1 hour before the measurement; positive control drug

SMILES	Percent improvement (%)
COc1cccc(C2(O)CCCCC2CN(C)C)c1 (centres unmarked) [Tramadol, tramadol, reference compound]	43

Same assay, conditions: MIA-induced model rats; right hind limb weight load ratio, day 24; test substance orally twice a day from day 14; experiment with morphine as positive control (Table 8)

SMILES	Percent improvement (%)
Nc1ncc(F)cc1-c1ccc(Oc2ncc(NC(=O)Nc3cc(C(F)(F)F)ccc3-c3cccnc3)cn2)cc1 [Example 14-6, 1-(2-(4-(2-amino-5-fluoropyridin-3-yl)phenoxy)pyrimidin-5-yl)-3-(2-(pyridin-3-yl)-5-(trifluoromethyl)phenyl)urea]	53
Nc1ncc(C(F)(F)F)cc1-c1ccc(Oc2ncc(NC(=O)Nc3cc(C(F)(F)F)ccc3-n3ccc(C(F)(F)F)n3)cn2)cc1 [Example 15-52, 1-(2-{4-[2-amino-5-(trifluoromethyl)-3-pyridinyl]phenoxy}-5-pyrimidinyl)-3-{5-(trifluoromethyl)-2-[3-(trifluoromethyl)-1H-pyrazol-1-yl]phenyl}urea]	60
Nc1ncc(Cl)cc1-c1ccc(Oc2ncc(NC(=O)Nc3cc(C(F)(F)F)ccc3-c3ccccc3)cn2)cc1 [Example 15-55, 1-{2-[4-(2-amino-5-chloro-3-pyridinyl)phenoxy]-5-pyrimidinyl}-3-[4-(trifluoromethyl)-2-biphenylyl]urea]	62
Nc1ncc(Cl)cc1-c1ccc(Oc2ncc(NC(=O)Nc3cc(C(F)(F)F)ccc3-n3cc(Cl)cn3)cn2)cc1 [Example 15-63, 1-{2-[4-(2-amino-5-chloro-3-pyridinyl)phenoxy]-5-pyrimidinyl}-3-[2-(4-chloro-1H-pyrazol-1-yl)-5-(trifluoromethyl)phenyl]urea]	53
Nc1ncc(Cl)cc1-c1ccc(Oc2ncc(NC(=O)Nc3ccc(C(F)(F)F)cc3C(F)(F)F)cn2)cc1 [Example 15-77, 1-{2-[4-(2-amino-5-chloro-3-pyridinyl)phenoxy]-5-pyrimidinyl}-3-[2,4-bis(trifluoromethyl)phenyl]urea]	55
Nc1ncc(C(F)(F)F)cc1-c1ccc(Oc2ncc(NC(=O)Nc3cc(C(F)(F)F)ccc3-n3cc(Cl)cn3)cn2)cc1 [Example 15-87, 1-(2-{4-[2-amino-5-(trifluoromethyl)-3-pyridinyl]phenoxy}-5-pyrimidinyl)-3-[2-(4-chloro-1H-pyrazol-1-yl)-5-(trifluoromethyl)phenyl]urea]	57
CS(=O)(=O)c1ccc(C(F)(F)F)cc1NC(=O)Nc1cnc(Oc2ccc(-c3cc(C(F)(F)F)cnc3N)cc2)nc1 [Example 15-98, 1-(2-{4-[2-amino-5-(trifluoromethyl)-3-pyridinyl]phenoxy}-5-pyrimidinyl)-3-[2-(methylsulfonyl)-5-(trifluoromethyl)phenyl]urea]	57
CS(=O)(=O)c1ccc(C(F)(F)F)cc1NC(=O)Nc1cnc(Oc2ccc(-c3cc(Cl)cnc3N)cc2)nc1 [Example 15-104, 1-{2-[4-(2-amino-5-chloro-3-pyridinyl)phenoxy]-5-pyrimidinyl}-3-[2-(methylsulfonyl)-5-(trifluoromethyl)phenyl]urea]	54
CN(C)c1ccn2ncc(-c3ccc(Oc4ncc(NC(=O)Nc5cc(C(F)(F)F)ccc5-c5cccnc5)cn4)cc3)c2n1 [Example 21-37, 1-(2-{4-[5-(dimethylamino)pyrazolo[1,5-a]pyrimidin-3-yl]phenoxy}-5-pyrimidinyl)-3-[2-(3-pyridinyl)-5-(trifluoromethyl)phenyl]urea]	67
CN(C)c1ccn2ncc(-c3ccc(Oc4ncc(NC(=O)Nc5cc(C(F)(F)F)ccc5-c5ccnn5C)cn4)cc3)c2n1 [Example 21-51, 1-(2-{4-[5-(dimethylamino)pyrazolo[1,5-a]pyrimidin-3-yl]phenoxy}-5-pyrimidinyl)-3-[2-(1-methyl-1H-pyrazol-5-yl)-5-(trifluoromethyl)phenyl]urea]	68
CN(C)c1ccn2ncc(-c3ccc(Oc4ncc(NC(=O)Nc5cc(C(F)(F)F)ccc5-c5ccccc5)cn4)cc3)c2n1 [Example 21-70, 1-(2-{4-[5-(dimethylamino)pyrazolo[1,5-a]pyrimidin-3-yl]phenoxy}-5-pyrimidinyl)-3-[4-(trifluoromethyl)-2-biphenylyl]urea]	61
Cc1cccc(-c2ccc(C(F)(F)F)cc2NC(=O)Nc2cnc(Oc3ccc(-c4cnn5ccc(N(C)C)nc45)cc3)nc2)c1 [Example 21-73, 1-(2-{4-[5-(dimethylamino)pyrazolo[1,5-a]pyrimidin-3-yl]phenoxy}-5-pyrimidinyl)-3-[3′-methyl-4-(trifluoromethyl)-2-biphenylyl]urea]	62

Same assay, conditions: MIA-induced model rats; right hind limb weight load ratio, day 24; test substance orally twice a day from day 14; experiment with tramadol as positive control (Table 7)

SMILES	Percent improvement (%)
Nc1ncc(Cl)cc1-c1ccc(Oc2ncc(NC(=O)Nc3cc(C(F)(F)F)ccc3-n3cccn3)cn2)cc1 [Example 7, 1-(2-(1H-pyrazol-1-yl)-5-(trifluoromethyl)phenyl)-3-(2-(4-(2-amino-5-chloropyridin-3-yl)phenoxy)pyrimidin-5-yl) urea]	61
Cc1cn(-c2ccc(C(F)(F)F)cc2NC(=O)Nc2cnc(Oc3ccc(-c4cc(Cl)cnc4N)cc3)nc2)nn1 [Example 8-1, 1-(2-(4-(2-amino-5-chloropyridin-3-yl)phenoxy)pyrimidin-5-yl)-3-(2-(4-methyl-1H-1,2,3-triazol-1-yl)-5-(trifluoromethyl)phenyl)urea]	60
Nc1ncc(F)cc1-c1ccc(Oc2ncc(NC(=O)Nc3cc(C(F)(F)F)ccc3-n3ccnn3)cn2)cc1 [Example 14-5, 1-(2-(1H-1,2,3-triazol-1-yl)-5-(trifluoromethyl)phenyl)-3-(2-(4-(2-amino-5-fluoropyridin-3-yl)phenoxy)pyrimidin-5-yl)urea]	47
Nc1ncc(Cl)cc1-c1ccc(Oc2ncc(NC(=O)Nc3ccc(C(F)(F)F)cc3Cl)cn2)cc1 [Example 15-6, 1-(2-(4-(2-amino-5-chloropyridin-3-yl)phenoxy)pyrimidin-5-yl)-3-(2-chloro-4-(trifluoromethyl)phenyl)urea]	51
COc1ccn2ncc(-c3ccc(Oc4ncc(NC(=O)Nc5cc(C(F)(F)F)ccc5-c5cccnc5)cn4)cc3)c2n1 [Example 21-9, 1-(2-(4-(5-methoxypyrazolo[1,5-a]pyrimidin-3-yl)phenoxy)pyrimidin-5-yl)-3-(2-(pyridin-3-yl)-5-(trifluoromethyl)phenyl)urea]	64
O=C(Nc1cnc(Oc2ccc(-c3cnn4cccnc34)cc2)nc1)Nc1cc(C(F)(F)F)ccc1-c1cccnc1 [Example 21-13, l-(2-(4-(pyrazolo[1,5-a]pyrimidin-3-yl)phenoxy)pyrimidin-5-yl)-3-(2-(pyridin-3-yl)-5-(trifluoromethyl)phenyl)urea]	66
